Data: ChEMBL document CHEMBL1201862, “PubChem BioAssay data set” (2004)
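Tested at 5 concentrations; 48 h exposure; 96-well plates; endpoints linearly interpolated, else capped at highest concentration. GI50 is the concentration that inhibits growth by half.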 Activity calls are given as the source filed them. Rule as the data show it: active = GI50 up to about 1.1 µM and inactive = higher.

Experiments:
Test in all cases: DTP human tumour cell line panel, 48 h
[1] = system: IGROV-1
[2] = system: MDA-N
[3] = system: CCRF-CEM
[4] = system: SK-OV-3
[5] = system: 786-0
[6] = system: MOLT-4
[7] = system: NCI-H522
[8] = system: SK-MEL-28
[9] = system: Hs-578T
[10] = system: HCC 2998
[11] = system: OVCAR-5
[12] = system: SW-620
[13] = system: U-251
[14] = system: NCI-H226
[15] = system: TK-10
[16] = system: SF-268
[17] = system: LOX IMVI

Measured: GI50

c1ccc(C(=NCCC2CNc3ccccc32)c2ccccc2)cc1 (configuration not stated)
inactive: [1] 89.3 µM | [2] > 100 µM | [3] > 100 µM | [4] > 100 µM | [5] > 100 µM | [6] > 100 µM | [7] > 100 µM | [8] > 100 µM | [9] > 100 µM | [10] > 100 µM | [11] > 100 µM | [12] > 100 µM | [13] > 100 µM

Nc1nc(Cl)cc(NCCO)n1
inactive: [1] > 100 µM | [2] > 100 µM | [14] > 100 µM | [4] > 100 µM | [5] > 100 µM | [15] > 100 µM | [16] > 100 µM | [6] > 100 µM | [7] > 100 µM | [8] > 100 µM | [9] > 100 µM | [10] 72.6 µM | [17] > 100 µM | [11] > 100 µM | [12] > 100 µM | [13] > 100 µM

NNc1[nH]c(=S)[nH]c1C(N)=O
inactive: [1] > 100 µM | [14] > 100 µM | [3] > 100 µM | [4] > 100 µM | [5] > 100 µM | [15] > 100 µM | [16] > 100 µM | [6] > 100 µM | [7] > 100 µM | [8] > 100 µM | [9] > 100 µM | [10] > 100 µM | [17] > 100 µM | [11] > 100 µM | [12] > 100 µM | [13] > 100 µM

Fc1cc(-c2cc(-c3ccccc3)no2)c(Cl)cc1Cl
inactive: [1] 12.7 µM | [2] 16.1 µM | [3] 10.7 µM | [4] > 32.5 µM | [5] 15.5 µM | [15] > 34.7 µM | [16] 19.4 µM | [6] 12.4 µM | [7] 14.9 µM | [8] > 29.8 µM | [9] > 34.8 µM | [17] 13.2 µM | [11] 1.29 µM | [12] 20.9 µM | [13] 10.3 µM

CC(=O)Oc1c(C)c2c(c3ccccc13)OC(C)(C)C2
inactive: [1] 17.2 µM | [2] 12 µM | [14] 22 µM | [3] 24.7 µM | [4] 30.5 µM | [5] 15.3 µM | [15] 18.6 µM | [16] 15.5 µM | [6] 15.1 µM | [7] 18.4 µM | [8] 18.8 µM | [9] 21 µM | [10] 16.5 µM | [11] 19.5 µM | [12] 19.8 µM | [13] 18.6 µM

O=C1C2=Cc3ccccc3OC2(O)Oc2ccc(O)cc21 (configuration not stated)
inactive: [1] 56.4 µM | [2] > 100 µM | [14] > 100 µM | [3] 7.83 µM | [4] > 100 µM | [5] > 100 µM | [15] > 100 µM | [16] > 100 µM | [6] 62.5 µM | [8] > 100 µM | [10] > 100 µM | [17] > 100 µM | [11] > 100 µM | [12] > 100 µM | [13] > 100 µM

Cn1c(=O)oc2cc(C(=S)N3CCCCC3)ccc21
inactive: [1] > 100 µM | [2] > 100 µM | [14] > 100 µM | [3] 61.8 µM | [4] > 100 µM | [5] > 100 µM | [15] > 100 µM | [16] > 100 µM | [6] > 100 µM | [8] > 100 µM | [9] > 100 µM | [17] > 100 µM | [11] > 100 µM | [12] > 100 µM | [13] > 100 µM

C[C@]12CC[C@H](O)CC1=CC[C@@H]1[C@@H]2CC[C@]2(C)NC(=O)/C(=C\c3ccccc3)C[C@@H]12
inactive: [1] 15.9 µM | [2] 24.3 µM | [14] 14.9 µM | [3] 17 µM | [4] 18.9 µM | [5] 19.8 µM | [15] 28.2 µM | [16] 15.5 µM | [6] 26.5 µM | [7] 10.5 µM | [8] 16.7 µM | [10] 13.4 µM | [17] 16.8 µM | [11] 14.5 µM | [12] 16.9 µM | [13] 14.1 µM

COC(=O)Nc1nc(=O)c2cc(OC)c(OC)cc2[nH]1
inactive: [1] 15.2 µM | [2] 2.31 µM | [14] 37.6 µM | [3] 6.04 µM | [4] 42.1 µM | [5] 45.5 µM | [15] > 100 µM | [16] > 100 µM | [6] 6.84 µM | [7] 2.37 µM | [8] 63 µM | [9] 66.1 µM | [10] 71.3 µM | [11] > 100 µM | [12] 3.85 µM | [13] 61.5 µM

Cc1cn(C2CC(n3cc(Cn4cc(I)c(=O)[nH]c4=O)nn3)C(CO)O2)c(=O)[nH]c1=O (configuration not stated)
inactive: [2] > 100 µM | [14] > 100 µM | [3] > 100 µM | [4] > 100 µM | [15] > 100 µM | [16] > 100 µM | [6] > 100 µM | [8] > 100 µM | [9] > 100 µM | [10] > 100 µM | [11] > 100 µM | [12] > 100 µM | [13] > 100 µM

O=C1Nc2ccccc2/C1=N/Nc1nc(-c2ccccc2)cs1
inactive: [1] 21.1 µM | [2] 62.4 µM | [14] > 100 µM | [4] 59 µM | [5] 26.4 µM | [15] 31.9 µM | [6] 45.2 µM | [8] 36.1 µM | [10] 52.5 µM | [17] 44.6 µM | [11] 58.3 µM | [12] > 100 µM | [13] 24.2 µM

CC(NC(CC12CC3CC(CC(C3)C1)C2)C(N)=O)c1ccccc1 (configuration not stated)
inactive: [1] 39.7 µM | [2] 25.6 µM | [3] 19.1 µM | [4] 5.27 µM | [15] 26.6 µM | [16] 25 µM | [6] 16.2 µM | [7] 18 µM | [8] 20 µM | [10] 17.5 µM | [17] 15.7 µM | [11] 17.5 µM | [12] 31.1 µM | [13] 13.3 µM

COc1ccc(-c2cc(O)c3cccnc3n2)cc1
inactive: [1] 26.7 µM | [14] 45.1 µM | [3] 28.1 µM | [4] 26.7 µM | [15] 44.4 µM | [16] 40.6 µM | [6] 29.3 µM | [7] 41.1 µM | [8] 44 µM | [9] 24.9 µM | [10] 82 µM | [17] 28.1 µM | [11] > 100 µM | [12] 32.2 µM

COC1OC(CO)C(O)C(OC(=O)c2cc(O)c(O)c(O)c2)C1OC(=O)c1cc(O)c(O)c(O)c1 (configuration not stated)
inactive: [1] > 100 µM | [2] 25.1 µM | [14] > 100 µM | [3] 42.7 µM | [4] > 100 µM | [5] > 100 µM | [15] > 100 µM | [16] 59.4 µM | [6] 79.4 µM | [7] 30.5 µM | [8] > 100 µM | [9] > 100 µM | [17] 23.3 µM | [11] > 100 µM | [12] 41.6 µM | [13] > 100 µM

COc1ccc2c(C)cc(N/N=C/c3ccc(OC)c4ccccc34)nc2c1
inactive: [1] 14.9 µM | [14] 12.9 µM | [3] 1.93 µM | [4] 17.3 µM | [5] 12.1 µM | [15] 17.3 µM | [16] 15.9 µM | [6] 3.97 µM | [7] 12 µM | [8] 16.1 µM | [9] 15.7 µM | [17] 3.71 µM | [11] 14 µM | [12] 7.06 µM | [13] 3.66 µM

C[Si](C)(C)C1=C2C(=O)c3ccccc3C(=O)C2=C([Si](C)(C)C)[C@@H]2CCCC[C@H]12
inactive: [1] > 100 µM | [2] > 100 µM | [3] > 100 µM | [4] > 100 µM | [15] > 100 µM | [6] > 100 µM | [7] > 100 µM | [8] > 100 µM | [10] > 100 µM | [17] > 100 µM | [11] > 100 µM | [12] > 100 µM | [13] > 100 µM

O=C(N/N=C\c1ccc([N+](=O)[O-])cc1)Nc1ccccc1
inactive: [1] > 100 µM | [2] > 100 µM | [14] > 100 µM | [3] > 100 µM | [4] > 100 µM | [15] > 100 µM | [6] > 100 µM | [8] > 100 µM | [9] > 100 µM | [17] > 10 µM | [11] > 100 µM | [12] > 100 µM | [13] > 100 µM

Cc1cc(C#N)c(Nc2ccc(F)cc2[N+](=O)[O-])s1
inactive: [2] > 100 µM | [14] > 100 µM | [3] > 100 µM | [4] > 100 µM | [5] 54.5 µM | [16] 25.5 µM | [6] > 100 µM | [7] > 100 µM | [8] > 100 µM | [10] > 100 µM | [11] > 100 µM | [12] > 100 µM | [13] 26.8 µM

COc1ccc(N2C(=O)C3c4[nH]c5ccccc5c4C4CCCCCCCC4C3C2=O)cc1 (configuration not stated)
inactive: [1] > 10 µM | [2] > 10 µM | [14] > 10 µM | [3] 2.07 µM | [4] > 10 µM | [15] > 10 µM | [16] > 10 µM | [6] > 10 µM | [7] > 10 µM | [8] > 10 µM | [9] > 10 µM | [10] > 10 µM | [11] > 10 µM | [12] > 10 µM | [13] > 10 µM
